Results as given in ChEMBL document CHEMBL5537193, “Multitargeting HDAC Inhibitors Containing a RAS/RAF Protein Interfering Unit” (J Med Chem, 2024).
Activity calls are given as the source filed them. No cut-off for these calls is given here.

Tests used:
Histone deacetylase 9 = Histone deacetylase 9 (Homo sapiens, UniProt Q9UKV0); assay: Inhibition of HDAC9 (unknown origin)
[1] = molecular target: Serine/threonine-protein kinase PLK1 (Homo sapiens, UniProt P53350); assay: Inhibition of PLK1 (unknown origin)
PANC-1 [2] = assay: Cell cycle arrest in human PANC-1 cells assessed as accumulation of cells at G2-M phase at 2 uM incubated for 24 hrs by PI/RNase staining based flow cytometric analysis; type: functional
PANC-1 [3] = assay: Induction of apoptosis in human PANC-1 cells assessed as apoptotic cells at 2 uM incubated for 24 hrs by flow cytometric analysis relative to control; type: functional
PANC-1 [4] = assay: Induction of apoptosis in human PANC-1 cells incubated for 24 hrs by flow cytometric analysis; type: functional, cell-based; conditions: dose 1-4 µM
PANC-1 [5] = assay: Induction of apoptosis in human PANC-1 cells assessed as increase in Bax expression at 2 uM incubated for 24 hrs by Western blot analysis; type: functional, cell-based
PANC-1 [6] = assay: Induction of apoptosis in human PANC-1 cells assessed as increase in cleaved caspase-9 expression level at 2 uM incubated for 24 hrs by Western blot analysis; type: functional, cell-based
PANC-1 [7] = assay: Induction of apoptosis in human PANC-1 cells assessed as increase in cleaved PARP expression level at 2 uM incubated for 24 hrs by Western blot analysis; type: functional, cell-based
[8] = Metabolic stability in human liver microsomes assessed as half-life at 1 uM measured upto 40 mins by LC-MS/MS analysis; type: ADME, Microsome
[9] = Metabolic stability in human liver microsomes assessed as intrinsic clearance at 1 uM measured upto 40 mins by LC-MS/MS analysis; type: ADME, Microsome; conditions: read-out: CLH
[10] = Metabolic stability in rat liver microsomes assessed as intrinsic clearance at 1 uM measured upto 40 mins by LC-MS/MS analysis; type: ADME, Microsome; conditions: read-out: CLH
[11] = Half-life in Sprague-Dawley rat at 15 mg/kg, ip measured after 24 hrs by LC-MS/MS analysis; type: ADME, organism-based; conditions: in vivo
[12] = Tmax in Sprague-Dawley rat at 15 mg/kg, ip measured after 24 hrs by LC-MS/MS analysis; type: ADME, organism-based; conditions: in vivo
[13] = AUC (0 to infinity) in Sprague-Dawley rat at 15 mg/kg, ip measured after 24 hrs by LC-MS/MS analysis; type: ADME, organism-based; conditions: in vivo
[14] = Toxicity in BALB/c nude mouse xenografted with human HT-29 cells assessed as change in main organs at 7.5 to 15 mg/kg, ip administered once every 2 days for 12 times for 24 days by H&E staining based analysis; type: organism-based; conditions: in vivo, 576 h, dose 7.5-15 mg/kg, time 24 day
HT-29 [15] = assay: Effect on RAS protein expression in human HT-29 cells at 2 uM incubated for 24 hrs by Western blot analysis; type: functional, cell-based
HT-29 [16] = assay: Effect on ERK1/2 protein expression in human HT-29 cells at 2 uM incubated for 24 hrs by Western blot analysis; type: functional, cell-based
PANC-1 [17] = assay: Inhibition of MAPK signaling pathway in human PANC-1 cells assessed as inhibition of C-RAF phosphorylation at Ser338 residue at 2 uM incubated for 24 hrs by Western blot analysis; type: cell-based
PANC-1 [18] = assay: Inhibition of MAPK signaling pathway in human PANC-1 cells assessed as inhibition of MEK phosphorylation at 2 uM incubated for 24 hrs by Western blot analysis; type: cell-based
PANC-1 [19] = assay: Inhibition of MAPK signaling pathway in human PANC-1 cells assessed as inhibition of ERK1/2 phosphorylation at 2 uM incubated for 24 hrs by Western blot analysis; type: cell-based
HT-29 [20] = assay: Inhibition of MAPK signaling pathway in human HT-29 cells assessed as inhibition of C-RAF phosphorylation at Ser338 residue at 2 uM incubated for 24 hrs by Western blot analysis; type: cell-based
PANC-1 [21] = assay: Effect on alpha-tubulin expression in human PANC-1 cells at 2 uM incubated for 24 hrs by Western blot analysis; type: functional, cell-based
HT-29 [22] = assay: Effect on alpha-tubulin expression in human HT-29 cells at 2 uM incubated for 24 hrs by Western blot analysis; type: functional, cell-based
Mus musculus [23] = assay: In vivo inhibition of HDAC3 in BALB/c mouse xenografted with human HT-29 cells assessed as induction of histone H3 acetylation administered intraperitoneally once every 2 days for 12 times and measured after 24 days by Western blot analysis; type: functional; conditions: dose 7.5-15 mg/kg, route ip, time 24.0 day
Mus musculus [24] = assay: In vivo inhibition of MAPK signaling pathway in BALB/c mouse xenografted with human HT-29 cells assessed as inhibition of c-RAF phosphorylation at Ser338 residue administered intraperitoneally once every 2 days for 12 times and measured after 24 days by Western blot analysis; type: functional; conditions: dose 7.5-15 mg/kg, route ip, time 24.0 day
HT-29 [25] = assay: Effect on RAS expression in tumor of BALB/c mouse xenografted with human HT-29 cells at 7.5 to 15 mg/kg, ip administered once every 2 days for 12 times and measured after 24 days by Western blot analysis; type: functional, organism-based; conditions: Neoplasm, dose 7.5-15 mg/kg, time 24.0 day
HT-29 [26] = assay: Effect on ERK1/2 expression in tumor of BALB/c mouse xenografted with human HT-29 cells at 7.5 to 15 mg/kg, ip administered once every 2 days for 12 times and measured after 24 days by Western blot analysis; type: functional, organism-based; conditions: Neoplasm, dose 7.5-15 mg/kg, time 24.0 day
HT-29 [27] = assay: Effect on Histone H3 expression in tumor of BALB/c mouse xenografted with human HT-29 cells at 7.5 to 15 mg/kg, ip administered once every 2 days for 12 times and measured after 24 days by Western blot analysis; type: functional, organism-based; conditions: Neoplasm, dose 7.5-15 mg/kg, time 24.0 day
HT-29 [28] = assay: Antitumor activity against human HT-29 cells xenografted in BALB/c nude mouse assessed as tumor growth inhibition at 15 mg/kg, ip administered once a day for 24 days relative to control; type: functional; conditions: HT-29, 576 h, time 24 day, read-out: TGI
HT-29 [29] = assay: Antitumor activity against human HT-29 cells xenografted in BALB/c nude mouse assessed as tumor growth inhibition administered intraperitoneally once a day for 24 days; type: functional, cell-based; conditions: route ip, time 24.0 day
[30] = Toxicity in BALB/c nude mouse xenografted with human HT-29 cells assessed as change in body weight at 7.5 to 15 mg/kg, ip administered once daily for 24 days; type: organism-based; conditions: in vivo, 576 h, dose 7.5-15 mg/kg, time 24 day
[31] = Toxicity in BALB/c nude mouse xenografted with human HT-29 cells assessed as change in liver histopathology at 10 to 15 mg/kg, ip administered once daily for 24 days by H&E staining based analysis; type: organism-based; conditions: in vivo, 576 h, dose 10-15 mg/kg, time 24 day
[32] = Toxicity in BALB/c nude mouse xenografted with human HT-29 cells assessed as change in lung histopathology at 10 to 15 mg/kg, ip administered once daily for 24 days by H&E staining based analysis; type: organism-based; conditions: in vivo, 576 h, dose 10-15 mg/kg, time 24 day
A-431 = assay: cells; conditions: Homo sapiens, A-431, 72 h
Description: Cytotoxicity against human A-431 cells assessed as inhibition of cell growth incubated for 72 hrs by MTT assay

L02 = assay: cells; conditions: Homo sapiens, L02, 72 h
Description: Cytotoxicity against human L02 cells assessed as inhibition of cell growth incubated for 72 hrs by MTT assay

K562 = assay: cells; conditions: Homo sapiens, K562, 72 h
Description: Cytotoxicity against human K562 cells assessed as inhibition of cell growth incubated for 72 hrs by MTT assay

MV4-11 = assay: cells; conditions: Homo sapiens, MV4-11, 72 h
Description: Cytotoxicity against human MV4-11 cells assessed as inhibition of cell growth incubated for 72 hrs by MTT assay

Sequence of Serine/threonine-protein kinase PLK1 (P53350 whole entry): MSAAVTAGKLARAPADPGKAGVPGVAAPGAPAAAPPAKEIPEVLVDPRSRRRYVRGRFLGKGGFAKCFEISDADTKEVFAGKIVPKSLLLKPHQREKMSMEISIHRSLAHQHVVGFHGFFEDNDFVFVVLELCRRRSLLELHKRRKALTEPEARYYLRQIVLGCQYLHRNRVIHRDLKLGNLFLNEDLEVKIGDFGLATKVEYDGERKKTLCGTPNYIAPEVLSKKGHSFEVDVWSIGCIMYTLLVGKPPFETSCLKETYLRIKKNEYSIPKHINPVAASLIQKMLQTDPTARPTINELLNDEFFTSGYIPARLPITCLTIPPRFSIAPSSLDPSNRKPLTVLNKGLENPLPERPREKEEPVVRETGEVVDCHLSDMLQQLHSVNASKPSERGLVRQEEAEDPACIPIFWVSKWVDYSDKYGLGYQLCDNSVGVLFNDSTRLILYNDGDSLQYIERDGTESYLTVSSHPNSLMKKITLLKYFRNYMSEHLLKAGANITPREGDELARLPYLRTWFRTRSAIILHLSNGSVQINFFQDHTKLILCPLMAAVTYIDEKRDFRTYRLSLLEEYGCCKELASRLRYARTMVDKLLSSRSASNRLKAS
Sequence of Histone deacetylase 9 (Q9UKV0 whole entry): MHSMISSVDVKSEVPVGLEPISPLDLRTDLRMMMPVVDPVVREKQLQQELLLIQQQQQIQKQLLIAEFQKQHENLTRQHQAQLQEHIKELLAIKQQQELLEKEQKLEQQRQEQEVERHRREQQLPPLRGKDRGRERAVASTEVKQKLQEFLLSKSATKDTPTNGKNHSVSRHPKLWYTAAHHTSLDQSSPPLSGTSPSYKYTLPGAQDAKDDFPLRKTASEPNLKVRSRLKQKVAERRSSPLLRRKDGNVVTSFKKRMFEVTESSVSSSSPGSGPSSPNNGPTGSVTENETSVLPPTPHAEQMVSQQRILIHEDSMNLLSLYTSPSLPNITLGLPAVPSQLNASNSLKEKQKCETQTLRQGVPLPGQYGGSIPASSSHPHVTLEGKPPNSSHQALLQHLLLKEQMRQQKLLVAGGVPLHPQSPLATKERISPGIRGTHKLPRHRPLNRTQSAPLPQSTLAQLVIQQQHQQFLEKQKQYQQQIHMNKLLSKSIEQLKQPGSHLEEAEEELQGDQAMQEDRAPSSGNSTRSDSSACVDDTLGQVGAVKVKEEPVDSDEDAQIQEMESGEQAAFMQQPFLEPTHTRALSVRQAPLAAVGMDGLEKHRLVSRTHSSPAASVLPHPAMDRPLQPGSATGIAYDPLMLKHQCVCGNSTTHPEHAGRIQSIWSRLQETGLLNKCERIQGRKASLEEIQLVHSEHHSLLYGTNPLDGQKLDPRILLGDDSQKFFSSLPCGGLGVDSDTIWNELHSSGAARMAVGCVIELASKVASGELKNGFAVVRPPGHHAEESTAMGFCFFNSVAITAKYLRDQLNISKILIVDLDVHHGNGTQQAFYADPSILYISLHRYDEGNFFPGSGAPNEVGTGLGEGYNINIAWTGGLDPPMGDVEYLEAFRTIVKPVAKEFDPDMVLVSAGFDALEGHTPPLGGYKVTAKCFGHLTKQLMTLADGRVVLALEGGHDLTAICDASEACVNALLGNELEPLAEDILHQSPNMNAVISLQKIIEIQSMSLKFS

With `COc1cc(OC)c(/C=C/S(=O)(=O)Cc2ccc(OC)c(NCC(=O)NO)c2)c(OC)c1` the IC50 (Histone deacetylase 9) was 83.7 nM, the IC50 [1] was 17.8 nM and the inhibition [1] was “Dose-Dependent Effect”. The Activity (PANC-1 [2]) was “Active”, the Activity (PANC-1 [3]) was 57.4% and the Activity (PANC-1 [4]) was “Dose-Dependent Effect”. For the same compound, the Activity (PANC-1 [5]) was “Active”, the Activity (PANC-1 [6]) was “Active” and the Activity (PANC-1 [7]) was “Active”. The half-life at 1 µM [8] was 124 min, the CLint scaled at 1 µM [9] was 14 mL/min/kg and the CLint scaled at 1 µM [10] was 450 mL/min/kg. For the same compound, the half-life [11] was 46.3 min, the Tmax [12] was 30 min and the AUC(0-inf) [13] was 5200 ng·h/mL. The Activity [14] was “Non-Toxic”, the Activity (HT-29 [15]) was “inactive” and the Activity (HT-29 [16]) was “inactive”. For the same compound, the inhibition (PANC-1 [17]) was “Active”, the inhibition (PANC-1 [18]) was “Active” and the inhibition (PANC-1 [19]) was “Active”. For the same compound, the inhibition (HT-29 [20]) was “Active”, the Activity (PANC-1 [21]) was “inactive” and the Activity (HT-29 [22]) was “inactive”. For the same compound, the inhibition (Mus musculus [23]) was “Dose-Dependent Effect”, the inhibition (Mus musculus [24]) was “Dose-Dependent Effect” and the Activity (HT-29 [25]) was “inactive”. The Activity (HT-29 [26]) was “inactive”, the Activity (HT-29 [27]) was “inactive” and the inhibition in vivo at 15 mg/kg (HT-29 [28]) was 86.7%. The TGI (HT-29 [29]) was “Dose-Dependent Effect”, the Activity [30] was “Non-Toxic” and the Activity [31] was “Non-Toxic”. The Activity [32] was “Non-Toxic”, the IC50 (A-431) was 550 nM and the IC50 (L02) was > 40000 nM. The IC50 (K562) was 20 nM and the IC50 (MV4-11) was 80 nM.
